Data taken from ChEMBL document CHEMBL4387741, “Optimization of novel reversible Bruton's tyrosine kinase inhibitors identified using Tethering-fragment-based screens” (Bioorg Med Chem, 2019).

Experiments:
[1] = target: Cyclin-dependent kinase 14 (Homo sapiens) (UniProt O94921); test: Inhibition of wild-type human full length PFTK1 (M1 to H451 residues) expressed in bacterial expression system at 1 uM by Kinomescan method relative to control
[2] = target: Rho-associated protein kinase 1 (Homo sapiens) (UniProt Q13464); test: Inhibition of wild-type human partial length ROCK1 (M1 to R415 residues) expressed in mammalian expression system at 1 uM by Kinomescan method relative to control
[3] = target: Casein kinase I isoform gamma-1 (Homo sapiens) (UniProt Q9HCP0); test: Inhibition of wild-type human partial length CSNK1G1 (T15 to S353 residues) expressed in bacterial expression system at 1 uM by Kinomescan method relative to control
[4] = target: Dual specificity tyrosine-phosphorylation-regulated kinase 2 (Homo sapiens) (UniProt Q92630); test: Inhibition of wild-type human full length DYRK2 (M1 to S528 residues) expressed in mammalian expression system at 1 uM by Kinomescan method relative to control
[5] = target: Tyrosine-protein kinase Fes/Fps (Homo sapiens) (UniProt P07332); test: Inhibition of wild-type human partial length FES (I527 to R822 residues) expressed in bacterial expression system at 1 uM by Kinomescan method relative to control
Chain of Tyrosine-protein kinase Fes/Fps (Homo sapiens) (P07332 whole entry, the tested form may be a part): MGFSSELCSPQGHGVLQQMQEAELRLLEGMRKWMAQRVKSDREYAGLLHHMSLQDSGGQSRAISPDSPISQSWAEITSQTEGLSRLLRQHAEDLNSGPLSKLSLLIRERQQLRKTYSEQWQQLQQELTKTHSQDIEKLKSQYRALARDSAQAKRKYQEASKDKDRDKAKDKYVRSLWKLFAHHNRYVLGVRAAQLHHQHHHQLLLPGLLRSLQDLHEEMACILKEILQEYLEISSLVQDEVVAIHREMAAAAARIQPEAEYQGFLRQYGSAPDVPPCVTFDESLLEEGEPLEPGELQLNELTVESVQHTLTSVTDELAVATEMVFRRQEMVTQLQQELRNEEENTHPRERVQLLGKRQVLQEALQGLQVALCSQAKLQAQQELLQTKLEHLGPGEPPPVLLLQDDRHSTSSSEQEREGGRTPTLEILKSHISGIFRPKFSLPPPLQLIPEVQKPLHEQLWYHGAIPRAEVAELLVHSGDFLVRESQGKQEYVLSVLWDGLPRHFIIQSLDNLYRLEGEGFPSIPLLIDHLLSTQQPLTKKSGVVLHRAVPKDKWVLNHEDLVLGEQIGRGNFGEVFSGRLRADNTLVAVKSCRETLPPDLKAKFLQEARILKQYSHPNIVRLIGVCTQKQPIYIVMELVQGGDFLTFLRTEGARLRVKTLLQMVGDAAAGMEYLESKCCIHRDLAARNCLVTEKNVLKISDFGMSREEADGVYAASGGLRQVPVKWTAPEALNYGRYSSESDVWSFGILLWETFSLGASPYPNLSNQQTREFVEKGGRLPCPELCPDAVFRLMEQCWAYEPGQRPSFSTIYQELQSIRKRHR

[6] = target: Macrophage colony-stimulating factor 1 receptor (Homo sapiens) (UniProt P07333); test: Inhibition of wild-type human partial length autoinhibited CSF1R (Y538 to S939 residues) expressed in mammalian expression system at 1 uM by Kinomescan method relative to control
Chain of Macrophage colony-stimulating factor 1 receptor (Homo sapiens) (P07333 whole entry, the tested form may be a part): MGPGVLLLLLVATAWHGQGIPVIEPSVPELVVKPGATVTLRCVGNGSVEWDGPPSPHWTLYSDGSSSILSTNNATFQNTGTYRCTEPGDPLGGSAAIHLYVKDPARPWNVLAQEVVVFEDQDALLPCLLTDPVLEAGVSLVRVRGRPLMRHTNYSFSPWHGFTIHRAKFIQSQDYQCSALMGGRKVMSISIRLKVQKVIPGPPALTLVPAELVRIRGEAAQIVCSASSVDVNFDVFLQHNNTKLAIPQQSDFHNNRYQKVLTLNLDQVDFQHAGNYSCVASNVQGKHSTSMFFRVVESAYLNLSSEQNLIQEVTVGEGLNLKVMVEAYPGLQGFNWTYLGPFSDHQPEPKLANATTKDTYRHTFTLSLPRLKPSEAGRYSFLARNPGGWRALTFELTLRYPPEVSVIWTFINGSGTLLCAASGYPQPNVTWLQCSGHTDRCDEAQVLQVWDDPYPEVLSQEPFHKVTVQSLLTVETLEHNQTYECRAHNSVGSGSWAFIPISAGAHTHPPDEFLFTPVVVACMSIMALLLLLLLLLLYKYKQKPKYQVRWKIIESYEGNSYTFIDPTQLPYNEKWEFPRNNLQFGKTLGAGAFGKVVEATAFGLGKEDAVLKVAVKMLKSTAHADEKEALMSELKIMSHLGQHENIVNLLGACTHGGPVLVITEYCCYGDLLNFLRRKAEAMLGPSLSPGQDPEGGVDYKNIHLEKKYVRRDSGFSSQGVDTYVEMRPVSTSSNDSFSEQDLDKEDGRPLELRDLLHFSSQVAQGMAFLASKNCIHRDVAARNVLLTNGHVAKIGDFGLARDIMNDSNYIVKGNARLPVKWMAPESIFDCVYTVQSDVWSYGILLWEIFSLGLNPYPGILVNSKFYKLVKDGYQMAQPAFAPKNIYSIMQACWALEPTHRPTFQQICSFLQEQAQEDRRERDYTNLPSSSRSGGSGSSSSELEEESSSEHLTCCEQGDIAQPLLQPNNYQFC

[7] = target: Tyrosine-protein kinase Fgr (Homo sapiens) (UniProt P09769); test: Inhibition of wild-type human partial length FGR (L233 to T529 residues) expressed in bacterial expression system at 1 uM by Kinomescan method relative to control
Chain of Tyrosine-protein kinase Fgr (Homo sapiens) (P09769 2-529 limits assumed): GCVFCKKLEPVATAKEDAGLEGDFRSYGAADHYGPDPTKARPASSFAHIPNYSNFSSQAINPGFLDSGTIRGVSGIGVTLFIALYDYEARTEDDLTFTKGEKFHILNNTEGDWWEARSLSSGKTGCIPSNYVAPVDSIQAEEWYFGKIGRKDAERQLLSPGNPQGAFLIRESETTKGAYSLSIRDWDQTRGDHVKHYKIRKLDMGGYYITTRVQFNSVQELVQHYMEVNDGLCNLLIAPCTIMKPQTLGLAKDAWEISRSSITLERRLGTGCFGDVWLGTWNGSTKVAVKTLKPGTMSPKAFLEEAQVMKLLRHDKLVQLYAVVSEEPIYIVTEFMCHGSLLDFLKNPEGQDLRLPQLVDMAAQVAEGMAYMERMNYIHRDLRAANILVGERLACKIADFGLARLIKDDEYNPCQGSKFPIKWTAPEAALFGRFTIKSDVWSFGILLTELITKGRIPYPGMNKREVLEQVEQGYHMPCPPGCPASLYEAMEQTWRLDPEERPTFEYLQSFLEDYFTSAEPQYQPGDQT

[8] = target: Serine/threonine-protein kinase 25 (Homo sapiens) (UniProt O00506); test: Inhibition of wild-type human partial length YSK1 (V14 to H295 residues) expressed in bacterial expression system at 1 uM by Kinomescan method relative to control
[9] = target: Ankyrin repeat and protein kinase domain-containing protein 1 (Homo sapiens) (UniProt Q8NFD2); test: Inhibition of wild-type human partial length ANKK1 (M1 to A305 residues) expressed in mammalian expression system at 1 uM by Kinomescan method relative to control
Chain of Ankyrin repeat and protein kinase domain-containing protein 1 (Homo sapiens) (Q8NFD2 whole entry, the tested form may be a part): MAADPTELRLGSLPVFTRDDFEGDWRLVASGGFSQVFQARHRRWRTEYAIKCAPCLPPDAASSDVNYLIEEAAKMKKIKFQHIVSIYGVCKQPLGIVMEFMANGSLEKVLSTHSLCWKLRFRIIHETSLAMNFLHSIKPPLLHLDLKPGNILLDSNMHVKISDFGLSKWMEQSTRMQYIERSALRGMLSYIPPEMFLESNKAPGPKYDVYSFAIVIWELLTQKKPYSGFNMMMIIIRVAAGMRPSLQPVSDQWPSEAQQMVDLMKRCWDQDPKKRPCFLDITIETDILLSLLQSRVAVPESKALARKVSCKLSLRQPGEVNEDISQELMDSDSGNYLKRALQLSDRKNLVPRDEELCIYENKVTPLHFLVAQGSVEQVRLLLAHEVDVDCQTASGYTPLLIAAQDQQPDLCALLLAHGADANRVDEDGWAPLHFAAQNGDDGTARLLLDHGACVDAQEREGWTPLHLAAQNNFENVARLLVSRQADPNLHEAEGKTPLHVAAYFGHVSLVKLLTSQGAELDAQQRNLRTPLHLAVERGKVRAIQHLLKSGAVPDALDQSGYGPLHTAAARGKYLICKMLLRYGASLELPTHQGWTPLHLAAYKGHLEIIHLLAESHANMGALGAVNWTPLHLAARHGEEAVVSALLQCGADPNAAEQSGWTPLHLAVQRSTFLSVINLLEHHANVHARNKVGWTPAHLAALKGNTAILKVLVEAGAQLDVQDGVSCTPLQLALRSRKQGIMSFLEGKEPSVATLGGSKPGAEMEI

[10] = target: Homeodomain-interacting protein kinase 2 (Homo sapiens) (UniProt Q9H2X6); test: Inhibition of wild-type human partial length HIPK2 (M153 to S564 residues) expressed in mammalian expression system at 1 uM by Kinomescan method relative to control
[11] = target: Hepatocyte growth factor receptor (Homo sapiens) (UniProt P08581); test: Inhibition of wild-type human partial length MET (D1010 to S1367 residues) expressed in bacterial expression system at 1 uM by Kinomescan method relative to control
[12] = target: Phosphatidylinositol 4,5-bisphosphate 3-kinase catalytic subunit beta isoform (Homo sapiens) (UniProt P42338); test: Inhibition of wild-type human partial length PIK3CB (P118 to S1070 residues) expressed in mammalian expression system at 1 uM by Kinomescan method relative to control
[13] = target: Serine/threonine-protein kinase MARK1 (Homo sapiens) (UniProt Q9P0L2); test: Inhibition of wild-type human partial length MARK1 (Q30 to T341 residues) expressed in bacterial expression system at 1 uM by Kinomescan method relative to control
Chain of Serine/threonine-protein kinase MARK1 (Homo sapiens) (Q9P0L2 whole entry, looked up, the tested form may be a part): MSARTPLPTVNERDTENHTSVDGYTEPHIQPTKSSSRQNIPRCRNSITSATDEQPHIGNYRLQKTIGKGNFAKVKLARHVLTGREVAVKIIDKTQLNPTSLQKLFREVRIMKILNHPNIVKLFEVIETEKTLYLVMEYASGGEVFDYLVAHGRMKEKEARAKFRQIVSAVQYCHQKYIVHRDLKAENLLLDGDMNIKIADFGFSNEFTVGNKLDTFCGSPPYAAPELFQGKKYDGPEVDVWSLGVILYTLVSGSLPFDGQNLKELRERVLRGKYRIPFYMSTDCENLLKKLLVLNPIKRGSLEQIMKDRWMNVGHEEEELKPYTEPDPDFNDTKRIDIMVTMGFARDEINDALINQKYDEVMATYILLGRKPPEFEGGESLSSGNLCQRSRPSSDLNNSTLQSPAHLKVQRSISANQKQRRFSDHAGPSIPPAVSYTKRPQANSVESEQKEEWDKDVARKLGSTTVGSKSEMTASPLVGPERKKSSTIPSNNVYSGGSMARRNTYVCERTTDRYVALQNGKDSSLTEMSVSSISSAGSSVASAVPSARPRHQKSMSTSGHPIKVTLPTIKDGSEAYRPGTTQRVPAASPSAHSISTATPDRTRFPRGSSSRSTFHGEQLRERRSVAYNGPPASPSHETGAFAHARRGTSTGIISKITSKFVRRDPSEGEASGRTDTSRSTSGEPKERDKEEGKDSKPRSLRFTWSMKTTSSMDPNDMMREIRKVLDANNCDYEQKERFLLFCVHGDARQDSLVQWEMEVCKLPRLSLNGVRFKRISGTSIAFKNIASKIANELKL

[14] = system: Receptor-type tyrosine-protein kinase FLT3 (Homo sapiens), P36888 [N841I]; test: Inhibition of human partial length FLT3 N841I mutant (V592 to Y969 residues) expressed in bacterial expression system at 1 uM by Kinomescan method relative to control
[15] = target: Cyclin-dependent kinase 19 (Homo sapiens) (UniProt Q9BWU1); test: Inhibition of wild-type human partial length CDK11 (M1 to N360 residues) expressed in bacterial expression system at 10 uM by Kinomescan method relative to control
[16] = target: Beta-adrenergic receptor kinase 1 (Homo sapiens) (UniProt P25098); test: Inhibition of wild-type human full length GRK2 (M1 to L689 residues) expressed in mammalian expression system at 10 uM by Kinomescan method relative to control
Chain of Beta-adrenergic receptor kinase 1 (Homo sapiens) (P25098 whole entry, the tested form may be a part, canonical isoform): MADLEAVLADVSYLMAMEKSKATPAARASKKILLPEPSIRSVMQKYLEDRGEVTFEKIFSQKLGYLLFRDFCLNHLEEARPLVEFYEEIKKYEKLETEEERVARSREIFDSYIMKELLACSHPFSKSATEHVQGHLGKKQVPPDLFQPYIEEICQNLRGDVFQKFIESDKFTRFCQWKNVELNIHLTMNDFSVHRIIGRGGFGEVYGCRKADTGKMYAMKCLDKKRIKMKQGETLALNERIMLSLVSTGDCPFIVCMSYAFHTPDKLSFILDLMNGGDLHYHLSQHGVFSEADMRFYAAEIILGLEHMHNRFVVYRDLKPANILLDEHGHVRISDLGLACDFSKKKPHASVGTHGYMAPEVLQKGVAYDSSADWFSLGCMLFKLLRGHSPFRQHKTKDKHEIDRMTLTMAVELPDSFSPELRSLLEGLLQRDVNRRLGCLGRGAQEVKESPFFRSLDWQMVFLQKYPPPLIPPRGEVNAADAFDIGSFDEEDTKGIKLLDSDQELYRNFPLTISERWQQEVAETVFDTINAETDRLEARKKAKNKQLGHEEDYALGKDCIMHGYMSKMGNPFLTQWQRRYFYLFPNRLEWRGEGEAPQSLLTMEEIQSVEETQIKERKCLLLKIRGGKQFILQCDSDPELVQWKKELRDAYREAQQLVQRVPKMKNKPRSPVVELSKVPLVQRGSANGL

[17] = target: Casein kinase I isoform epsilon (Homo sapiens) (UniProt P49674); test: Inhibition of wild-type human full length CSNK1E (M1 to K416 residues) expressed in bacterial expression system at 10 uM by Kinomescan method relative to control
[18] = target: Serine/threonine-protein kinase Nek6 (Homo sapiens) (UniProt Q9HC98); test: Inhibition of wild-type human full length NEK6 (M8 to T313 residues) expressed in bacterial expression system at 10 uM by Kinomescan method relative to control
[19] = target: Protein kinase C iota type (Homo sapiens) (UniProt P41743); test: Inhibition of wild-type human partial length PRKCI (H215 to V587 residues) expressed in mammalian expression system at 10 uM by Kinomescan method relative to control
[20] = target: Phosphatidylinositol 4,5-bisphosphate 3-kinase catalytic subunit gamma isoform (Homo sapiens) (UniProt P48736); test: Inhibition of wild-type human partial length PIK3CG (S144 to A1102 residues) expressed in mammalian expression system at 10 uM by Kinomescan method relative to control
[21] = target: Phosphorylase b kinase gamma catalytic chain, skeletal muscle/heart isoform (Homo sapiens) (UniProt Q16816); test: Inhibition of wild-type human full length PHKG1 (M1 to Y387 residues) expressed in bacterial expression system at 10 uM by Kinomescan method relative to control
Chain of Phosphorylase b kinase gamma catalytic chain, skeletal muscle/heart isoform (Homo sapiens) (Q16816 whole entry, looked up, the tested form may be a part, canonical isoform): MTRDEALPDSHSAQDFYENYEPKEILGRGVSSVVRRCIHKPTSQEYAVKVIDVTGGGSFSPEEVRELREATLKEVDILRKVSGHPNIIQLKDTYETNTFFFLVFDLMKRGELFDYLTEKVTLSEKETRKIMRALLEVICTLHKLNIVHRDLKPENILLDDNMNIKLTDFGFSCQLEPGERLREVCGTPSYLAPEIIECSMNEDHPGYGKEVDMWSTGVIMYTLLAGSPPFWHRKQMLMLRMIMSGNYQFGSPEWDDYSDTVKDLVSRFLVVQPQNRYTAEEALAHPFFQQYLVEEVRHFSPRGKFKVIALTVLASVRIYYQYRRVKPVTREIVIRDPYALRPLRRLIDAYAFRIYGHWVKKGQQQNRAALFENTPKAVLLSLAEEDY

[22] = target: Tyrosine-protein kinase ABL2 (Homo sapiens) (UniProt P42684); test: Inhibition of wild-type human ABL2 (A248 to G542 residues) expressed in bacterial expression system at 10 uM by Kinomescan method relative to control
[23] = target: ALK tyrosine kinase receptor (Homo sapiens) (UniProt Q9UM73); test: Inhibition of wild-type human partial length ALK (I1088 to E1409 residues) expressed in mammalian expression system at 10 uM by Kinomescan method relative to control
[24] = target: Cyclin-dependent kinase 8 (Homo sapiens) (UniProt P49336); test: Inhibition of wild-type human partial length CDK8 (M1 to T360 residues) expressed in bacterial expression system at 10 uM by Kinomescan method relative to control
[25] = target: Serine/threonine-protein kinase MARK1 (Homo sapiens) (UniProt Q9P0L2); test: Inhibition of wild-type human partial length MARK1 (Q30 to T341 residues) expressed in bacterial expression system at 10 uM by Kinomescan method relative to control
[26] = target: Phosphatidylinositol 3-kinase C2 domain-containing subunit gamma (Homo sapiens) (UniProt O75747); test: Inhibition of wild-type human partial length PIK3C2G (M1 to I1446 residues) expressed in mammalian expression system at 10 uM by Kinomescan method relative to control
[27] = target: Atypical kinase COQ8B, mitochondrial (Homo sapiens) (UniProt Q96D53); test: Inhibition of wild-type human full length ADCK4 (M1 to S544 residues) expressed in bacterial expression system at 10 uM by Kinomescan method relative to control

Compound `O=C(Nc1cccc([C@@H]2CN(c3ncnc4[nH]ccc34)CCN2CCO)c1)Nc1c(F)cccc1N1CCCC1` has an inhibition [1] of 89%, an inhibition [2] of 71% and an inhibition [3] of 100%. For the same compound, the inhibition [4] was 100%, the inhibition [5] was 100% and the inhibition [6] was 83%. The inhibition [7] was 77%, the inhibition [8] was 91% and the inhibition [9] was 100%. The inhibition [10] was 100%, the inhibition [11] was 95% and the inhibition [12] was 100%. For the same compound, the inhibition [13] was 97% and the inhibition [14] was 28%.

`O=C(Nc1cccc([C@H]2CCCN(c3ncnc4[nH]ccc34)C2)c1)Nc1ccccc1N1CCCC1` was tested, and the inhibition [15] was 37%, the inhibition [16] was 98% and the inhibition [17] was 90%. For the same compound, the inhibition [18] was 69%, the inhibition [19] was 51% and the inhibition [20] was 75%. It also gave an inhibition [21] of 91%, an inhibition [22] of 89% and an inhibition [23] of 80%. It also gave an inhibition [24] of 53%, an inhibition [25] of 81% and an inhibition [26] of 89%. The inhibition [27] was 100%.
